{"source": "patent US8703701B2", "about": "(Indiana University Research and Technology Corporation, priority 2009, dated 2014)", "key": {"glucagon receptor": {"target": "T1, glucagon receptor (Homo sapiens, UniProt P47871)", "T1 construct": "expressed in transfected cells; host or cells: HEK293", "T1 sequence (P47871 26-477)": "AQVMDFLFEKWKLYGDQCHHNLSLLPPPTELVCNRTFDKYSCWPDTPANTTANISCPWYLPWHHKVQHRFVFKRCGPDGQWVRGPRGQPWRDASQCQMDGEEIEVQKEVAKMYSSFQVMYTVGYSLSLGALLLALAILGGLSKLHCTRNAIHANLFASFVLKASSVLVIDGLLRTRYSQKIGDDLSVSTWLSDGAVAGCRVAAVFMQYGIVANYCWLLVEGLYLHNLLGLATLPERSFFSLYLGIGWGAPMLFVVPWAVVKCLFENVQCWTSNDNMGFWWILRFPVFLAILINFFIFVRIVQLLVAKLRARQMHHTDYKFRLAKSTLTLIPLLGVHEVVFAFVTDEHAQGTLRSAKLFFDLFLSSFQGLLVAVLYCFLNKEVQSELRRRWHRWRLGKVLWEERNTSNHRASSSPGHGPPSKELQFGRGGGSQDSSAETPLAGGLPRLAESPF", "test": "cAMP induction, firefly luciferase reporter assay, glucagon receptor", "type": "cell-based", "conditions": "for EC50: Activity at Glucagon Receptor EC50 [pM]; for Activity at Glucagon Receptor % Relative Activity: compared to native glucagon", "method": "(§1) The ability of each peptide to induce cAMP was measured in a firefly luciferase-based reporter assay.\n(§2) At the end of the incubation, 100 μL of LucLite luminescence substrate reagent (Perkin Elmer, Wellesley, Mass.) were added to each well. The plate was shaken briefly, incubated 10 min in the dark and light output was measured on MicroBeta-1450 liquid scintillation counter (Perkin-Elmer, Wellesley, Mass.)."}, "GLP-1 receptor": {"target": "T2, GLP-1 receptor (Homo sapiens, UniProt P43220)", "T2 construct": "expressed in transfected cells; host or cells: HEK293", "T2 sequence (P43220 24-463)": "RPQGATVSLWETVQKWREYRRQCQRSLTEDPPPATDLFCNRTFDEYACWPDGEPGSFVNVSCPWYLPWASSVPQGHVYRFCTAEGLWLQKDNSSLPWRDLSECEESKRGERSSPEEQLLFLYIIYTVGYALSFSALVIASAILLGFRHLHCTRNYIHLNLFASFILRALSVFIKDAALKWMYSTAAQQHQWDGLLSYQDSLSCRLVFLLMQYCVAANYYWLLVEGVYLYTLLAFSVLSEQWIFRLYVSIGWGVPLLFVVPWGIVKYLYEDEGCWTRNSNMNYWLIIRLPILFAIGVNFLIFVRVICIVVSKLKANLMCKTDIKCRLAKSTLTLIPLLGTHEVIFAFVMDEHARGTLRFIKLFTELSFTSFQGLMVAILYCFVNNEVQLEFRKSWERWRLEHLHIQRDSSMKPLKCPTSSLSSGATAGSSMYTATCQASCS", "test": "cAMP induction, firefly luciferase reporter assay, GLP-1 receptor", "type": "cell-based", "conditions": "for Activity at GLP-1 Receptor % Relative Activity: compared to native GLP-1", "method": "as §1, §2"}, "[1]": {"conditions": "Activity at GLP-1 Receptor EC50 [nM], Table 3C"}}, "note": "Starred links: 1 amine or outer side, 2 acyl side, 3 side chain; linkers in the order of their positions; H or OH if unused. Non-standard residues stand in square brackets, D forms with d. Residues, ends and D or L forms follow the SMILES beside them. Groups on a side chain read outwards from the residue. No end group written: not given here. *: point of attachment. γGlu = O=C(O)[C@H](CCC(=O)[*:2])N[*:1]; Stearoyl = CCCCCCCCCCCCCCCCCC(=O)*; Palmitoyl = CCCCCCCCCCCCCCCC(=O)*; Myristoyl = CCCCCCCCCCCCCC(=O)*; Aib = CC(C)(N)C(=O)O"}
{"molecule": "CCCCCCCCCCCCCC(=O)N[C@@H](CCC(=O)N[C@@H](CCC(=O)NCCCC[C@H](NC(=O)[C@H](CC(=O)O)NC(=O)[C@H](CO)NC(=O)[C@@H](NC(=O)[C@H](Cc1ccccc1)NC(=O)[C@@H](NC(=O)CNC(=O)[C@H](CCC(N)=O)NC(=O)C(C)(C)NC(=O)[C@@H](N)Cc1c[nH]cn1)[C@@H](C)O)[C@@H](C)O)C(=O)N[C@@H](CO)C(=O)N[C@@H](CCCCN)C(=O)N[C@@H](Cc1ccc(O)cc1)C(=O)N[C@@H](CC(C)C)C(=O)N[C@@H](CC(=O)O)C(=O)NC(C)(C)C(=O)N[C@@H](CCCNC(=N)N)C(=O)N[C@@H](C)C(=O)N[C@@H](C)C(=O)N[C@@H](CCC(N)=O)C(=O)N[C@@H](CC(=O)O)C(=O)N[C@@H](Cc1ccccc1)C(=O)N[C@H](C(=O)N[C@@H](CCC(N)=O)C(=O)N[C@@H](Cc1c[nH]c2ccccc12)C(=O)N[C@@H](CC(C)C)C(=O)N[C@@H](CCSC)C(=O)N[C@@H](CC(=O)O)C(=O)N[C@H](C(N)=O)[C@@H](C)O)C(C)C)C(=O)O)C(=O)O", "note": "[compound 70] (H-H[Aib]QGTFTSDK([γGlu-γGlu-Myristoyl])SKYLD[Aib]RAAQDFVQWLMDT-NH2; N-terminus assumed)", "values": [{"measurement": "EC50", "setting": "glucagon receptor; Table 3B", "value": 6, "unit": "pM"}, {"measurement": "Activity at Glucagon Receptor % Relative Activity", "setting": "glucagon receptor; Table 3B", "value": 709, "unit": "%"}, {"measurement": "EC50", "setting": "GLP-1 receptor; Activity at GLP-1 Receptor EC50 [pM], Table 3B", "value": 4, "unit": "pM"}, {"measurement": "Activity at GLP-1 Receptor % Relative Activity", "setting": "GLP-1 receptor; Table 3B", "value": 500, "unit": "%"}]}
{"molecule": "CCCCCCCCCCCCCCCCCC(=O)N[C@@H](CCC(=O)N[C@@H](CCC(=O)NCCCC[C@H](NC(=O)[C@H](CC(=O)O)NC(=O)[C@H](CO)NC(=O)[C@@H](NC(=O)[C@H](Cc1ccccc1)NC(=O)[C@@H](NC(=O)CNC(=O)[C@H](CCC(N)=O)NC(=O)C(C)(C)NC(=O)[C@@H](N)Cc1c[nH]cn1)[C@@H](C)O)[C@@H](C)O)C(=O)N[C@@H](CO)C(=O)N[C@@H](CCCCN)C(=O)N[C@@H](Cc1ccc(O)cc1)C(=O)N[C@@H](CC(C)C)C(=O)N[C@@H](CC(=O)O)C(=O)NC(C)(C)C(=O)N[C@@H](CCCNC(=N)N)C(=O)N[C@@H](C)C(=O)N[C@@H](C)C(=O)N[C@@H](CCC(N)=O)C(=O)N[C@@H](CC(=O)O)C(=O)N[C@@H](Cc1ccccc1)C(=O)N[C@H](C(=O)N[C@@H](CCC(N)=O)C(=O)N[C@@H](Cc1c[nH]c2ccccc12)C(=O)N[C@@H](CC(C)C)C(=O)N[C@@H](CCSC)C(=O)N[C@@H](CC(=O)O)C(=O)N[C@H](C(N)=O)[C@@H](C)O)C(C)C)C(=O)O)C(=O)O", "note": "[compound 71] (H-H[Aib]QGTFTSDK([γGlu-γGlu-Stearoyl])SKYLD[Aib]RAAQDFVQWLMDT-NH2; N-terminus assumed)", "values": [{"measurement": "EC50", "setting": "glucagon receptor; Table 3B", "value": 4, "unit": "pM"}, {"measurement": "Activity at Glucagon Receptor % Relative Activity", "setting": "glucagon receptor; Table 3B", "value": 975, "unit": "%"}, {"measurement": "Activity at GLP-1 Receptor % Relative Activity", "setting": "GLP-1 receptor; Table 3B", "value": 1222, "unit": "%"}]}
{"molecule": "CCCCCCCCCCCCCCCC(=O)N[C@@H](CCC(=O)NCCCC[C@H](NC(=O)[C@H](CC(=O)O)NC(=O)[C@H](CO)NC(=O)[C@@H](NC(=O)[C@H](Cc1ccccc1)NC(=O)[C@@H](NC(=O)CNC(=O)[C@H](CCC(N)=O)NC(=O)[C@@H](CO)NC(=O)[C@@H](N)Cc1c[nH]cn1)[C@@H](C)O)[C@@H](C)O)C(=O)N[C@@H](CO)C(=O)N[C@@H](CCCCN)C(=O)N[C@@H](Cc1ccc(O)cc1)C(=O)N[C@@H](CC(C)C)C(=O)N[C@@H](CC(=O)O)C(=O)N[C@@H](CCC(=O)O)C(=O)N[C@@H](CCC(N)=O)C(=O)N[C@@H](C)C(=O)N[C@@H](C)C(=O)N[C@@H](CCCCN)C(=O)N[C@@H](CCC(=O)O)C(=O)N[C@@H](Cc1ccccc1)C(=O)N[C@H](C(=O)N[C@@H](CS)C(=O)N[C@@H](Cc1c[nH]c2ccccc12)C(=O)N[C@@H](CC(C)C)C(=O)N[C@@H](CC(C)C)C(=O)N[C@@H](CC(=O)O)C(=O)N[C@H](C(=O)O)[C@@H](C)O)[C@@H](C)CC)C(=O)O", "note": "[compound 76]", "values": [{"measurement": "Activity at Glucagon Receptor % Relative Activity", "setting": "glucagon receptor; Table 3C", "value": 1500, "unit": "%"}, {"measurement": "EC50", "setting": "GLP-1 receptor; [1]", "value": 3, "unit": "pM"}, {"measurement": "Activity at GLP-1 Receptor % Relative Activity", "setting": "GLP-1 receptor; Table 3C", "value": 1200, "unit": "%"}]}
{"molecule": "CCCCCCCCCCCCCCCC(=O)N[C@@H](CCC(=O)NCCCC[C@H](NC(=O)[C@H](CC(=O)O)NC(=O)[C@H](CO)NC(=O)[C@@H](NC(=O)[C@H](Cc1ccccc1)NC(=O)[C@@H](NC(=O)CNC(=O)[C@H](CCC(N)=O)NC(=O)[C@@H](CO)NC(=O)[C@@H](N)Cc1c[nH]cn1)[C@@H](C)O)[C@@H](C)O)C(=O)N[C@@H](CO)C(=O)N[C@@H](CCCCN)C(=O)N[C@@H](Cc1ccc(O)cc1)C(=O)N[C@@H](CC(C)C)C(=O)N[C@@H](CC(=O)O)C(=O)N[C@@H](CCC(=O)O)C(=O)N[C@@H](CCC(N)=O)C(=O)N[C@@H](C)C(=O)N[C@@H](C)C(=O)N[C@@H](CCCCN)C(=O)N[C@@H](CCC(=O)O)C(=O)N[C@@H](Cc1ccccc1)C(=O)N[C@H](C(=O)N[C@@H](CS)C(=O)N[C@@H](Cc1c[nH]c2ccccc12)C(=O)N[C@@H](CC(C)C)C(=O)N[C@@H](CC(C)C)C(=O)N[C@@H](CC(=O)O)C(=O)N[C@@H](CCC(=O)O)C(N)=O)[C@@H](C)CC)C(=O)O", "note": "[compound 82] (H-H[dS]QGTFTSDK([γGlu-Palmitoyl])SKYLDEQAAKEFICWLLDE-NH2; N-terminus assumed)", "values": [{"measurement": "Activity at Glucagon Receptor % Relative Activity", "setting": "glucagon receptor; Table 3C", "value": 121, "unit": "%"}, {"measurement": "EC50", "setting": "GLP-1 receptor; [1]", "value": 20, "unit": "pM"}, {"measurement": "Activity at GLP-1 Receptor % Relative Activity", "setting": "GLP-1 receptor; Table 3C", "value": 345, "unit": "%"}]}
{"molecule": "CCCCCCCCCCCCCCCC(=O)N[C@@H](CCC(=O)NCCCC[C@H](NC(=O)[C@H](CC(=O)O)NC(=O)[C@H](CO)NC(=O)[C@@H](NC(=O)[C@H](Cc1ccccc1)NC(=O)[C@@H](NC(=O)CNC(=O)[C@H](CCC(N)=O)NC(=O)[C@@H](CO)NC(=O)[C@@H](N)Cc1c[nH]cn1)[C@@H](C)O)[C@@H](C)O)C(=O)N[C@@H](CO)C(=O)N[C@@H](CCCCN)C(=O)N[C@@H](Cc1ccc(O)cc1)C(=O)N[C@@H](CC(C)C)C(=O)N[C@@H](CC(=O)O)C(=O)N[C@@H](CCC(=O)O)C(=O)N[C@@H](CCC(N)=O)C(=O)N[C@@H](C)C(=O)N[C@@H](C)C(=O)N[C@@H](CCCCN)C(=O)N[C@@H](CCC(=O)O)C(=O)N[C@@H](Cc1ccccc1)C(=O)N[C@H](C(=O)N[C@@H](CS)C(=O)N[C@@H](Cc1c[nH]c2ccccc12)C(=O)N[C@@H](CC(C)C)C(=O)N[C@@H](CC(C)C)C(=O)N[C@@H](CC(=O)O)C(=O)N[C@H](C(=O)N[C@@H](CCC(=O)O)C(N)=O)[C@@H](C)O)[C@@H](C)CC)C(=O)O", "note": "[compound 83]", "values": [{"measurement": "Activity at Glucagon Receptor % Relative Activity", "setting": "glucagon receptor; Table 3C", "value": 61, "unit": "%"}, {"measurement": "Activity at GLP-1 Receptor % Relative Activity", "setting": "GLP-1 receptor; Table 3C", "value": 288, "unit": "%"}]}
{"molecule": "HSQGTFTSDYSKYLDERRAKEFVQWLMNT-NH2 [compound 68]", "values": [{"measurement": "Activity at Glucagon Receptor % Relative Activity", "setting": "glucagon receptor; Table 2B", "value": 104, "unit": "%"}, {"measurement": "Activity at GLP-1 Receptor % Relative Activity", "setting": "GLP-1 receptor; Table 2B", "value": 44, "unit": "%"}]}
